Data as given in patent US20100086615A1, “AGENT FOR TREATMENT OF PULMONARY DISEASE” (KYUSHU UNIVERSITY, NATIONAL UNIVERSITY CORPORATION, priority 2007, published 2010).

Test system: LPS-induced acute lung injury mice
Assay: Intratracheal administration in LPS-induced acute lung injury model; cells counted in bronchoalveolar lavage fluid
Assay type: in vivo, mice (male BALB/c)
Conditions: non-polymer-incorporated solution in saline (50 μL), intratracheal, 0.2, 2 or 20 μg/body; n=8

O=C([O-])C[C@H](O)C[C@H](O)/C=C/c1c(C2CC2)nc2ccccc2c1-c1ccc(F)cc1.O=C([O-])C[C@H](O)C[C@H](O)/C=C/c1c(C2CC2)nc2ccccc2c1-c1ccc(F)cc1.[Ca+2] [pitavastatin calcium]
Effect of inhibiting migration of inflammatory cells (result in words): did not exhibit the effect of inhibiting migration of inflammatory cells
